# Test results: article PMC11648915, “Identification and development of TRPM4 antagonists to counteract neuronal excitotoxicity” (iScience, 2024)
# Several values for one entry are separate records, joined by “and”; a condition that tells them apart may be missing. Identical values can stand only once. Like-named read-outs stand apart in the source and are kept apart here.
# Columns and labels:
# human TRPM4 = human TRPM4 (Homo sapiens, UniProt Q8TD43); assay: QPatch automated patch clamp on TRPM4-expressing HEK293 cells; type: cell-based; conditions: hsTRPM4-expressing HEK293 cells; for EC50: read-out: TRPM4 EC50 (potentiator activity)
# human TRPM4, sequence (Q8TD43 whole entry): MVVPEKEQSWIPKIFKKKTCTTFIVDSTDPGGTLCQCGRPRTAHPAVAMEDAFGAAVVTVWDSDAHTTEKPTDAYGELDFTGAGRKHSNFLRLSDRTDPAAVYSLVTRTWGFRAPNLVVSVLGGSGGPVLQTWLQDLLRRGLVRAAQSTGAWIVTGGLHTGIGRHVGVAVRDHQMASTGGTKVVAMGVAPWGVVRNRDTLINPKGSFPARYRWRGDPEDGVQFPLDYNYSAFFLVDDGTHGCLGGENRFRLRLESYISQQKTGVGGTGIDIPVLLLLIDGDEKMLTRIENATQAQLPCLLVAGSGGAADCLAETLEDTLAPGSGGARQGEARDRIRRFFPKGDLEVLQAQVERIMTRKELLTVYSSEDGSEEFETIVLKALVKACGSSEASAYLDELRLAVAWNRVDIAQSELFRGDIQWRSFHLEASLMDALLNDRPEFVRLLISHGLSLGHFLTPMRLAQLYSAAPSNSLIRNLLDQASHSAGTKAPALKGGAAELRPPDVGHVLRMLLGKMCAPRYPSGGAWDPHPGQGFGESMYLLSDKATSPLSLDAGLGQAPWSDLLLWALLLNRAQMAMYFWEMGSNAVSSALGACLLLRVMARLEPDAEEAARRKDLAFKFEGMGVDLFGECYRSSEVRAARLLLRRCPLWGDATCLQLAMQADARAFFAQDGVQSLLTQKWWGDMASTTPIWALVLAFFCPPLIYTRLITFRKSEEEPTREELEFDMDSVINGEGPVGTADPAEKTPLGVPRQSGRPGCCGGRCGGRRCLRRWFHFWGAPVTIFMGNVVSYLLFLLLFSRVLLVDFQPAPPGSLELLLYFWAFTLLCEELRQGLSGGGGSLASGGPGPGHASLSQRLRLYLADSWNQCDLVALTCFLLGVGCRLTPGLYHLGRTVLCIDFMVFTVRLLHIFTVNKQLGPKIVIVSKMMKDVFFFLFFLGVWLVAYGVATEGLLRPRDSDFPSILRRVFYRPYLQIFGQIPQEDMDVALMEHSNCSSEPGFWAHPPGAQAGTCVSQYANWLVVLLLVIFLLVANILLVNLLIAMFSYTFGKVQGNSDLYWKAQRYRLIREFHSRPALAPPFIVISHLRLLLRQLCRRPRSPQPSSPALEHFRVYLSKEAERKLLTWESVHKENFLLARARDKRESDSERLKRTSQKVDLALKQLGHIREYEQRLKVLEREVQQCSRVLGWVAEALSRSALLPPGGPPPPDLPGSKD
# Experimental: QPatchHTX, an automated electrophysiology platform, was used in single hole mode. One day before use human TRPM4- or TRPM5-expressing HEK293 cells were seeded in a T75 flask at a density of 53k cells per cm^2 and at passages < 23. […] The extracellular solution was (in mM): CaCl2 (7), MgCl2 (2), KCl (5), HEPES (10), NaCl (70), NMDG (70); pH 7.4 with NaOH. The intracellular solution was (in mM): HEPES (10), NMDG (100), NaCl (50), EGTA (20), MgCl2 (1), CaCl2 (21); pH 7.2 with HCl. […] This protocol was repeated every 7 seconds. […] FFA was used as reference compound and applied cumulatively with each concentration incubating at a minimum of 20 voltage protocol runs (140 seconds) with the current after addition of FFA being calculated as full block. […] Each compound was measured at least 3 time independently.
# human TRPM5 = target: T1, human TRPM5 (Homo sapiens, UniProt Q9NZQ8); assay: QPatch automated patch clamp on TRPM5-expressing HEK293 cells; type: cell-based; conditions: hsTRPM5-expressing HEK293 cells
# T1 sequence (Q9NZQ8 1-1165): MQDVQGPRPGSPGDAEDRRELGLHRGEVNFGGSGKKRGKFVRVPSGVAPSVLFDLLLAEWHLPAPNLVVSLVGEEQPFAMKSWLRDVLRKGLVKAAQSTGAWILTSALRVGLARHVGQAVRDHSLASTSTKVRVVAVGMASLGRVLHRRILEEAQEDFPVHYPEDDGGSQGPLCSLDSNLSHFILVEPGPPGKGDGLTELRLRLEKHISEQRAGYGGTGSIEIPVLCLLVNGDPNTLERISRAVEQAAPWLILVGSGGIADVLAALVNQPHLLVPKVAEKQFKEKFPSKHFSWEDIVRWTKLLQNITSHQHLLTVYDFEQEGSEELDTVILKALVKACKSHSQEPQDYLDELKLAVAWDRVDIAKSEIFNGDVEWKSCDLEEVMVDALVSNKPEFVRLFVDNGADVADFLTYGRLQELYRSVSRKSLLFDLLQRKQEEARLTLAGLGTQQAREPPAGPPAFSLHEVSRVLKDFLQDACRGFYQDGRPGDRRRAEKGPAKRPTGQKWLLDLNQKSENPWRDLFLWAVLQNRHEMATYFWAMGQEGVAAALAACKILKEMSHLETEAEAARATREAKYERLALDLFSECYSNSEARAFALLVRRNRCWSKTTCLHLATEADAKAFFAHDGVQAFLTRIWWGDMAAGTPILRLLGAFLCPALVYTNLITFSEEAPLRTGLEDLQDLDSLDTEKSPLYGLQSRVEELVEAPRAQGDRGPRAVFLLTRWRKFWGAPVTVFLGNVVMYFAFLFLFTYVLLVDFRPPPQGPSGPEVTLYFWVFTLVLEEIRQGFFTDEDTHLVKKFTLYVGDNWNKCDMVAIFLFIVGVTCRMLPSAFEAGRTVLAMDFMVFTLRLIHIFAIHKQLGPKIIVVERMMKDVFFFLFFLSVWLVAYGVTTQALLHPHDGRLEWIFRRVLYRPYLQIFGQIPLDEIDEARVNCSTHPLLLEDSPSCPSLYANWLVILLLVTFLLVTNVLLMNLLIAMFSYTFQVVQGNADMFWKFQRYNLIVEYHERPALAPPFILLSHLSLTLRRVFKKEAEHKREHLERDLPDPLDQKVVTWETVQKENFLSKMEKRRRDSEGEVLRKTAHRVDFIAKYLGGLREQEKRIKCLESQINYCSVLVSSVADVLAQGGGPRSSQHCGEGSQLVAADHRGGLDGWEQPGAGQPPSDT
# Excerpt: The counter screening phase involved the inclusion of hsTRPM5-expressing HEK293 cells, as closest homologue, and the parental HEK293 cell line to evaluate selectivity. […] Based on categorization of biological activity, mass spectrometry quality control, and aspects of medicinal chemistry, we prioritized 144 selective hsTRPM4 compounds. These compounds were then subjected to automated patch clamp electrophysiology measurements (QPatch[58]) to evaluate their activity profiles and IC50 values (Figures 1A, S1, and S2).
# QPatchHTX, an automated electrophysiology platform, was used in single hole mode. One day before use human TRPM4- or TRPM5-expressing HEK293 cells were seeded in a T75 flask at a density of 53k cells per cm^2 and at passages < 23. For QPatch assays, cells were harvested and re-suspended in SFM (Gibco, 11686029). The extracellular solution was (in mM): CaCl2 (7), MgCl2 (2), KCl (5), HEPES (10), NaCl (70), NMDG (70); pH 7.4 with NaOH. The intracellular solution was (in mM): HEPES (10), NMDG (100), NaCl (50), EGTA (20), MgCl2 (1), CaCl2 (21); pH 7.2 with HCl. After break-in, channels were consistently open and current through the channels could be observed at a voltage ramp from –100 mV to +100 mV over 500 ms. This protocol was repeated every 7 seconds. After saline and vehicle application, the channel was desensitized and residual current was used as baseline. FFA was used as reference compound and applied cumulatively with each concentration incubating at a minimum of 20 voltage protocol runs (140 seconds) with the current after addition of FFA being calculated as full block. […] Each compound was measured at least 3 time independently.
# [1] = In vivo pharmacokinetics after single i.p. or i.v. dose; conditions: female, C57BL/6J, mouse
# Experimental: Next, to assess in vivo availability of the Series 1–3 compounds, we evaluated drug metabolism and pharmacokinetics (DMPK). We measured compound concentrations in plasma, heart, and brain at several time points after intraperitoneal (i.p.) or intravenous (i.v.) single-dose injections.
# Half-life and bioavailability were calculated by noncompartmental analysis using the R package PK[84] (v1.3-6).
# [2] = Microsome clearance (mouse); type: in vitro ADME; conditions: mouse liver microsomes, 45 min, NADPH
# Experimental: (§1) Human or mouse liver microsomes were incubated with the test compound at a concentration of 1 μM for 45 min in the presence of cofactor (NADPH in excess). Samples were collected at various time points, and % remaining of test compound was determined using mass spectrometry (LC-MS/MS) to calculate hepatic clearance rate (L/h/kg).
# CYP2D6 = target: T2, CYP2D6 (Homo sapiens, UniProt P10635); assay: CYP inhibition assay 2D6; type: in vitro ADME
# T2 construct: purchased BD Gentest
# T2 sequence (P10635 whole entry): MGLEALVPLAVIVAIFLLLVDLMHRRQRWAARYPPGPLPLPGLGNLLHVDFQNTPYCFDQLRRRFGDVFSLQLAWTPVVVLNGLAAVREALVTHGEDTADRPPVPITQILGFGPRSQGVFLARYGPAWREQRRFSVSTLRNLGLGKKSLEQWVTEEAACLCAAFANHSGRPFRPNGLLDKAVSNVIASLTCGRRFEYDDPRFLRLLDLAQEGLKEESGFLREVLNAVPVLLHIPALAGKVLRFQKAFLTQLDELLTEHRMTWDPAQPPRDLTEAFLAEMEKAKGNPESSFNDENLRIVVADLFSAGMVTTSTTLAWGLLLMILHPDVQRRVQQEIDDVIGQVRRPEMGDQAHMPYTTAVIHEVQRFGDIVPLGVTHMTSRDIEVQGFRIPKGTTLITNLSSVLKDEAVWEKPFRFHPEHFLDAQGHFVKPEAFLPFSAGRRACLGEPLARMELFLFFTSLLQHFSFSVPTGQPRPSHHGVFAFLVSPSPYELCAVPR
# Experimental: (§2) The half-maximal inhibitory concentration (IC50) for cytochrome P450 (CYP) enzymes was determined using an in vitro enzyme inhibition assay. Recombinant CYP enzymes or human liver microsomes from BD Gentest, in 0.1 M phosphate buffer pH 7.4, containing native CYP enzymes were incubated with the test compound at various concentrations (1, 3, 10 and 30 μM) and containing 0.5% DMSO and 0.1% BSA final concentrations. 1 mM of NADPH cofactor was added and the reaction was started by a rapid increase of temperature until 37°C.
# CYP3A4 = target: T3, CYP3A4 (Homo sapiens, UniProt P08684); assay: CYP inhibition assay 3A4; type: in vitro ADME
# T3 construct: purchased BD Gentest
# T3 sequence (P08684 whole entry): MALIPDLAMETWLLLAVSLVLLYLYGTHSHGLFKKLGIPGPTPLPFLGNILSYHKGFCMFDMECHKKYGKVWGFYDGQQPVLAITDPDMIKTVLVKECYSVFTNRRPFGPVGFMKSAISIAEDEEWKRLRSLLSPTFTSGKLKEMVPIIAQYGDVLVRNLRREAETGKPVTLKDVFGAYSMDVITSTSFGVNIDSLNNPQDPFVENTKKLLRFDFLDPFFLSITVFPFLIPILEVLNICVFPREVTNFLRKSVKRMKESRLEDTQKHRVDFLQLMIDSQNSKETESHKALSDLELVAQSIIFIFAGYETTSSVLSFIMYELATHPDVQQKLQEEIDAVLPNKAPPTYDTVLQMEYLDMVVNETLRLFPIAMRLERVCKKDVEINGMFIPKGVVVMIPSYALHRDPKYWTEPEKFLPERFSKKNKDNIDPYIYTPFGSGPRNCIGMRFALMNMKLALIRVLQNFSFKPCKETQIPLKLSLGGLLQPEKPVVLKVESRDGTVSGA
# Experimental: as §2
# [3] = target: potassium channel human Ether-a-go-go Related Gene (hERG) (Homo sapiens, UniProt Q12809); assay: hERG channel inhibition; type: cell-based
# potassium channel human Ether-a-go-go Related Gene (hERG), sequence (Q12809 whole entry): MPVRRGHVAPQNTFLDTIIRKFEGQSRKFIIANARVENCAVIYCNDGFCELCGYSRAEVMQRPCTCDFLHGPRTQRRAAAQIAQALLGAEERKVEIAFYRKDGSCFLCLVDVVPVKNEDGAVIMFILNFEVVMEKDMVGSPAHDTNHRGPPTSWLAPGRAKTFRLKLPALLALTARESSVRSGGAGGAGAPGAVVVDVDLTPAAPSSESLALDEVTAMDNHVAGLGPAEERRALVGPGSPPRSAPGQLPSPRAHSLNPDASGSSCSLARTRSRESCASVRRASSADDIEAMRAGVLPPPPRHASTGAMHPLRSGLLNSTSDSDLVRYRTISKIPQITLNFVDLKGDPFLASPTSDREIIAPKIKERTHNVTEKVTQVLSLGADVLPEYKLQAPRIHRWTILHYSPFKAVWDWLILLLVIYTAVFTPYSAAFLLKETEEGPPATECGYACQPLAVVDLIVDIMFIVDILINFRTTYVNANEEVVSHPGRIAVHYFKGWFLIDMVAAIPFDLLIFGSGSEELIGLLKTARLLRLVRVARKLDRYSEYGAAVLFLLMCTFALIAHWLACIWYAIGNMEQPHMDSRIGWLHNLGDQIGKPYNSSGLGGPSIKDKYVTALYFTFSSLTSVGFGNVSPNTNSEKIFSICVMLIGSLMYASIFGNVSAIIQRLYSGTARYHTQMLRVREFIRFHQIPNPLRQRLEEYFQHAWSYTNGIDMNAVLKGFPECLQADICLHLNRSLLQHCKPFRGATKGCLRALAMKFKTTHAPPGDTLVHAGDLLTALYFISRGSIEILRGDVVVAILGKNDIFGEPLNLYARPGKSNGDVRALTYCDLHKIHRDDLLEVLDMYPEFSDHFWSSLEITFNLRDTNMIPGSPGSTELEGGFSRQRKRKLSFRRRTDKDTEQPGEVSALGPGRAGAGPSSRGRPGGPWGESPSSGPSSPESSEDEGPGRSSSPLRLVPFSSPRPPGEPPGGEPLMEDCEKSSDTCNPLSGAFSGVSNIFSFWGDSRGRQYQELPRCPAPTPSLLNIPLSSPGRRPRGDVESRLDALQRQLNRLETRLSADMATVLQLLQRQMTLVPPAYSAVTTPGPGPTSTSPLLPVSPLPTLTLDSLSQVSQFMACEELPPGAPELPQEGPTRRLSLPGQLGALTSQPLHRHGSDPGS
# Excerpt: We next used in vitro assays to test absorption, distribution, metabolism, excretion and toxicity (ADMET) parameters for selected compounds. We assessed compound absorption using parallel artificial membrane permeability (PAMPA) and Caco-2 cell permeability assays (cut-off criterion >2 × 10^−6 cm s^−1). […] To assess potential off-target activity of our compounds that could be relevant for safety in humans, we conducted comprehensive in vitro pharmacology using the commercially available and widely used SafetyScreen44 interaction panel[60] covering eight protein families.
# [4] = Microsome clearance (human); type: in vitro ADME; conditions: human liver microsomes, 45 min, NADPH, read-out: Microsomes (h) clearance (converted)
# Experimental: as §1
# [5] = Caco-2 permeability assay; type: in vitro ADME; conditions: human, heading: Caco-2 perm., direction not given
# Experimental: Caco-2 permeability was evaluated using a cell-based assay with Caco-2 cells cultured on permeable membrane inserts. The test compound was added at 10 μM to the apical (donor) compartment, and samples were collected from the basolateral (receiver) compartment at 120 min. The test compound was also added at 10 μM to the basolateral (donor) compartment, and samples were collected from the apical (receiver) compartment at 120 min. The amount of the compound in both compartments was measured using mass spectrometry (LC-MS/MS). The permeability coefficient (Papp, nm/s) apical to basolateral and basolateral to apical, and an efflux ratio were calculated.
# [6] = Parallel Artificial Membrane Permeability Assay (PAMPA); type: in vitro ADME; conditions: pH not given; for Papp at 16 h, 200 μM: PAMPA, read-out: PAMPA perm.
# Experimental: Parallel Artificial Membrane Permeability Assay (PAMPA) was performed using artificial lipid membrane layers to assess passive permeability of the test compound. Test compounds were diluted to 200 μM in system buffer at pH 5.0, 6.2 and 7.4. The solutions were filtered and 150 μL transferred to a High Sensitivity 96 well UV plate. This was analysed by UV as the reference plate. A 200 μL sample of the 200 μM solution was transferred to the ‘donor’ plate of the PAMPA pIon sandwich plate system. 200 μL of acceptor sink buffer was transferred to the ‘acceptor’ plate which had been previously treated with GIT-O lipid solution across the well filter. Donor and acceptor plates were sandwiched and kept in a humid environment at room temperature for 16 hours. On completion of the incubation the donor and acceptor plates were separated. 150 μL of solution was transferred from each of the donor and acceptor PAMPA sandwich plates into High Sensitivity 96 well UV plates for analysis by UV. at different time points. The concentration of the compound in the acceptor compartment was determined using mass spectrometry. The permeability coefficient (Papp) was calculated based on the rate of appearance of the compound in the acceptor compartment (nm/s).
# [7] = brain, ip, read-out: Brain half-life (converted)
# [8] = brain, iv, read-out: Brain half-life (converted)
# [9] = heart, ip, read-out: Heart half-life (converted)
# [10] = heart, iv, read-out: Heart half-life (converted)
# [11] = plasma, ip, read-out: Plasma half-life (converted)
# [12] = plasma, iv, read-out: Plasma half-life (converted)
smiles,measurement,setting,value
c1ccc(-c2ccccc2NCc2nc3ccccc3o2)cc1 [CMP009],IC50,human TRPM4,550 nM
O=c1cc(NC2CCCCCC2)nc2ccc(Cl)cn12 [CMP111],IC50,human TRPM4,170 nM and 110 nM
O=C(O)c1cc(Br)ccc1NS(=O)(=O)c1ccc(Cl)cc1 [CMP116],IC50,human TRPM5,> 30000 nM
same,IC50,human TRPM4,1870 nM
c1ccc(CSCc2cn3ccsc3n2)cc1 [CMP133],IC50,human TRPM4,280 nM
Cc1noc(-c2csc(S(=O)(=O)Nc3ccccc3C(F)(F)F)c2)c1C [CMP157],half-life,[1]; [7],3.9 h
same,half-life,[1]; [8],4.2 h
same,half-life,[1]; [9],3.3 h
same,half-life,[1]; [10],3.5 h
same,half-life,[1]; [11],2.9 h
same,half-life,[1]; [12],2.8 h
same,IC50,human TRPM4,360 nM
Nc1nnc(Cc2cccc(Br)c2)s1 [CMP225],EC50,human TRPM4,1340 nM
Oc1ccccc1NCc1nc2ccccc2o1 [CMP311],EC50,human TRPM4,3240 nM
COc1ccccc1-c1ccccc1NCc1nc2ccccc2o1 [CMP320],IC50,human TRPM4,820 nM
Cc1ccc(-c2ccccc2NCc2nc3ccccc3o2)s1 [CMP354],IC50,human TRPM5,> 10000 nM
same,CLint scaled at 1 μM,[2],> 900 mL/min/kg
same,half-life,[1]; [7],2.6 h
same,half-life,[1]; [8],1.6 h
same,half-life,[1]; [9],4.3 h
same,half-life,[1]; [10],4.8 h
same,half-life,[1]; [11],4.5 h
same,half-life,[1]; [12],1.5 h
same,IC50,CYP2D6,> 50000 nM
same,IC50,"CYP3A4; TDI, read-out: Cyp IC50 TDI 3A4",> 50000 nM
same,IC50,CYP3A4; read-out: Cyp IC50 3A4,> 50000 nM
same,IC50,[3],> 10000 nM
same,CLint scaled at 1 μM,[4],460 mL/min/kg
Nc1cccc(-c2ccccc2NCc2nc3ccccc3o2)c1 [CMP465],IC50,human TRPM5,> 30000 nM
same,CLint scaled at 1 μM,[2],393 mL/min/kg
same,IC50,CYP2D6,> 50000 nM
same,"Papp at 120 min, 10 μM",[5],18.9 ×10⁻⁶ cm/s
same,"Papp at 16 h, 200 μM",[6],37.9 ×10⁻⁶ cm/s
same,CLint scaled at 1 μM,[4],216 mL/min/kg
CNc1ccc(-c2ccccc2NCc2nc3ccccc3o2)cc1 [CMP470],IC50,human TRPM5,> 30000 nM
same,CLint scaled at 1 μM,[2],900 mL/min/kg
same,IC50,CYP2D6,> 50000 nM
same,"Papp at 16 h, 200 μM",[6],22 ×10⁻⁶ cm/s
same,CLint scaled at 1 μM,[4],225 mL/min/kg
CCCNc1cccc(-c2ccccc2NCc2nc3ccccc3o2)c1 [CMP471],IC50,human TRPM5,> 30000 nM
same,IC50,"CYP2D6; human, pH 7.4",> 50000 nM
same,IC50,"CYP3A4; human, pH 7.4",> 50000 nM
same,PAMPA perm.,[6],no detection
O=C(CCc1ccccc1)Nc1ccc(Cl)cc1C(=O)O [CMP493],IC50,human TRPM5,> 30000 nM
same,IC50,human TRPM4,530 nM
O=C(CCc1ccccc1)Nc1ccc(C(F)(F)F)cc1C(=O)O [CMP502],IC50,human TRPM5,> 30000 nM
same,IC50,human TRPM4,600 nM
O=C(CCc1ccccc1Cl)Nc1ccc(Br)cc1C(=O)O [CMP510],IC50,human TRPM5,19000 nM
same,IC50,human TRPM4,720 nM
O=C(CCc1cccc(Cl)c1)Nc1ccc(Br)cc1C(=O)O [CMP512],IC50,human TRPM5,940 nM
same,IC50,human TRPM4,410 nM
